From patent publication US7446199B2, “Compositions useful as inhibitors of protein kinases” (Vertex Pharmaceuticals Incorporated, priority 2003, dated 2008)

Biological target: T1, FLT-3 (Homo sapiens, UniProt P36888)
T1 construct: 0.02% BSA and 3 nM FLT-3
T1 sequence (P36888 27-993): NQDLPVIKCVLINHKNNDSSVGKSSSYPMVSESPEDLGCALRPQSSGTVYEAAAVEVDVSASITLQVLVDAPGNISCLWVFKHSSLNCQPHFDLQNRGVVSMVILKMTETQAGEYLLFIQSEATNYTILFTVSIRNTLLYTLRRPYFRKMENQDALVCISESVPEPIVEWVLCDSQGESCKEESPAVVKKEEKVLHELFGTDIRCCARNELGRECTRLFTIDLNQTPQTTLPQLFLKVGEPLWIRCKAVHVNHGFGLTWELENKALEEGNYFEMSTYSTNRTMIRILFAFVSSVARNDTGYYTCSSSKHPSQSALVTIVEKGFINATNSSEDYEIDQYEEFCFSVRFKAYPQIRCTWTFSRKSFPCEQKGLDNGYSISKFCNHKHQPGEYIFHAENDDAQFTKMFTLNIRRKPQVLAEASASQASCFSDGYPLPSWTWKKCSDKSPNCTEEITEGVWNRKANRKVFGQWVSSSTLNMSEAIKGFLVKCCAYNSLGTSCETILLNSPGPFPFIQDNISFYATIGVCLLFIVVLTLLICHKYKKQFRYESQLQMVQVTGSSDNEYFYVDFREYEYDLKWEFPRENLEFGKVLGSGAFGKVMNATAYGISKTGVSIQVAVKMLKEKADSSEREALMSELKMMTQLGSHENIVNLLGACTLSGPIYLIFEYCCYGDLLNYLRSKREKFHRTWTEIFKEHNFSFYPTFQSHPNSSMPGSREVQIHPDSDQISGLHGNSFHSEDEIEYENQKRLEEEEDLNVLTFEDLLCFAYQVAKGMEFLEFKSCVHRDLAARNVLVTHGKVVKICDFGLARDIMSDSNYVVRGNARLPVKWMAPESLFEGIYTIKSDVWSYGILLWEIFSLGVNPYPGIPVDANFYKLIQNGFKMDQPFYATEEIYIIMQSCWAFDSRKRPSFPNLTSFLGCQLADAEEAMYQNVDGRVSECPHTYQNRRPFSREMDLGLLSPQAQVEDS
Experiment: Inhibition of FLT-3, radiometric filter-binding assay
Type: biochemical
Conditions: 90 μM ATP, 0.5 mg/mL pE4Y, room temperature
Procedure: Compounds were screened for their ability to inhibit FLT-3 activity using a radiometric filter-binding assay. This assay monitors the ^33P incorporation into a substrate poly(Glu, Tyr) 4:1 (pE4Y). Reactions were carried out in a solution containing 100 mM HEPES (pH 7.5), 10 mM MgCl2, 25 mM NaCl, 1 mM DTT, 0.01% BSA and 2.5% DMSO. Final substrate concentrations in the assay were 90 μM ATP and 0.5 mg/mL pE4Y (both from Sigma Chemicals, St Louis, Mo.). The final concentration of compounds is generally between 0.01 and 5 μM. Typically, a 12-point titration was conducted by preparing serial dilutions from 10 mM DMSO stock of test compound. Reactions were carried out at room temperature.
Two assay solutions were prepared. Solution 1 contains 100 mM HEPES (pH 7.5), 10 mM MgCl2, 25 mM NaCl, 1 mg/ml pE4Y and 180 μM ATP(containing 0.3 μCi of [γ-^33P]ATP for each reaction). Solution 2 contains 100 mM HEPES (pH 7.5), 10 mM MgCl2, 25 mM NaCl, 2 mM DTT, 0.02% BSA and 3 nM FLT-3. The assay was run on a 96 well plate by mixing 50 μL each of Solution 1 and […] of the test compounds. The reaction was initiated with Solution2. After incubation for 20 minutes at room temperature, the reaction was stopped with 50 μL of 20% TCA containing 0.4 mM of ATP. All of the reaction volume was then transferred to a filter plate and washed with 5% TCA by a Harvester9600 from TOMTEC (Hamden, Conn.). The amount of ^33P incorporation into pE4y was analyzed by a Packard TopCount Microplate Scintillation Counter (Meriden, Conn.). The data was fitted using Prism software to get an IC50 or Ki.

Ki | Compound
0.2 to 1 µM | Fc1cccc(-c2cnoc2-c2c[nH]c3ncc(C4=CCC(NCc5ccccc5)CC4)cc23)c1F (stereo not shown) [Compound 136, Benzyl-(4-{3-[4-(2,3-difluoro-phenyl)-isoxazol-5-yl]-1H-pyrrolo[2,3-b]pyridin-5-yl}-cyclohex-3-enyl)-amine]
1 to 12.5 µM | Nc1[nH]c2ncccc2c1-c1oncc1-c1cccc(F)c1F [Compound 152]
< 0.2 µM | Fc1cccc(-c2cnoc2-c2c[nH]c3ncc(-c4cccnc4)cc23)c1F [Compound 59, 3-[4-(2,3-Difluoro-phenyl)-isoxazol-5-yl]-5-pyridin-3-yl-1H-pyrrolo[2,3-b]pyridine]
0.2 to 1 µM | Fc1cccc(-n2cnnc2-c2c[nH]c3ncc(-c4ccc(CN5CCOCC5)cc4)cc23)c1F [Compound 109, 3-[4-(2,3-Difluoro-phenyl)-4H-[1,2,4]triazol-3-yl]-5-(4-morpholin-4-ylmethyl-phenyl)-1H-pyrrolo[2,3-b]pyridine]
0.2 to 1 µM | CN(C)Cc1cc(Cl)nc(-c2cnc3[nH]cc(-c4oncc4-c4cccc(F)c4F)c3c2)c1 [Compound 81, (2-Chloro-6-{3-[4-(2,3-difluoro-phenyl)-isoxazol-5-yl]-1H-pyrrolo[2,3-b]pyridin-5-yl}-pyridin-4-ylmethyl)-dimethyl-amine]
0.2 to 1 µM | CC(=O)N1CCC(c2cnc3[nH]cc(-c4oncc4-c4cccc(F)c4F)c3c2)CC1 [Compound 63, 1-(4-{3-[4-(2,3-Difluoro-phenyl)-isoxazol-5-yl]-1H-pyrrolo[2,3-b]pyridin-5-yl}-piperidin-1-yl)-ethanone]
0.2 to 1 µM | Fc1cccc(-c2cnoc2-c2c[nH]c3ncc(-c4ccccc4)cc23)c1F [Compound 58, 3-[4-(2,3-Difluoro-phenyl)-isoxazol-5-yl]-5-phenyl-1H-pyrrolo[2,3-b]pyridine]
0.2 to 1 µM | COc1cncc(-c2cnc3[nH]cc(-c4oncc4-c4cccc(F)c4F)c3c2)c1 [Compound 96, 3-[4-(2,3-Difluoro-phenyl)-isoxazol-5-yl]-5-(5-methoxy-pyridin-3-yl)-1H-pyrrolo[2,3-b]pyridine]
< 0.2 µM | CS(=O)(=O)NC1CC=C(c2cnc3[nH]cc(-c4oncc4-c4cccc(F)c4F)c3c2)CC1 (stereo not shown) [Compound 140, N-(4-{3-[4-(2,3-Difluoro-phenyl)-isoxazol-5-yl]-1H-pyrrolo[2,3-b]pyridin-5-yl}-cyclohex-3-enyl)-methanesulfonamide]
0.2 to 1 µM | Oc1cnc2[nH]cc(-c3oncc3-c3cccc(Cl)c3Cl)c2c1 [Compound 48, 3-[4-(2,3-Dichloro-phenyl)-isoxazol-5-yl]-1H-pyrrolo[2,3-b]pyridin-5-ol]
1 to 12.5 µM | CCN1CCC(c2cnc3[nH]cc(-c4oncc4-c4cccc(F)c4F)c3c2)CC1 [Compound 72, 3-[4-(2,3-Difluoro-phenyl)-isoxazol-5-yl]-5-(1-ethyl-piperidin-4-yl)-1H-pyrrolo[2,3-b]pyridine]
1 to 12.5 µM | Nc1ccnc(-c2cnc3[nH]cc(-c4oncc4-c4cccc(F)c4F)c3c2)c1 [Compound 83, 2-{3-[4-(2,3-Difluoro-phenyl)-isoxazol-5-yl]-1H-pyrrolo [2,3-b]pyridin-5-yl}-pyridin-4-ylamine]
1 to 12.5 µM | CN(C)c1ccnc(-c2cnc3[nH]cc(-c4oncc4-c4cccc(F)c4F)c3c2)c1 [Compound 80, (2-{3-[4-(2,3-Difluoro-phenyl)-isoxazol-5-yl]-1H-pyrrolo[2,3-b]pyridin-5-yl}-pyridin-4-yl)-dimethyl-amine]
0.2 to 1 µM | CN1CCN(C(=O)[C@H]2C[C@H]2c2cnc3[nH]cc(-c4oncc4-c4cccc(F)c4F)c3c2)CC1 (relative stereo) [Compound 143, cis-(2-{3-[4-(2,3-Difluoro-phenyl)-isoxazol-5-yl]-1H-pyrrolo[2,3-b]pyridin-5-yl}-cyclopropyl)-(4-methyl-piperazin-1-yl)-methanone]
1 to 12.5 µM | CNc1ccc2c(-c3oncc3-c3cccc(F)c3F)c[nH]c2n1 [Compound 102, {3-[4-(2,3-Difluoro-phenyl)-isoxazol-5-yl]-1H-pyrrolo[2,3-b]pyridin-6-yl}-methyl-amine]
0.2 to 1 µM | CN1CCN(c2ccc(-c3cnc4[nH]cc(-c5nncn5-c5cccc(F)c5F)c4c3)cn2)CC1 [Compound 112]
1 to 12.5 µM | Cn1ccc2c(-c3oncc3-c3cccc(F)c3F)c[nH]c2c1=O [Compound 144, 3-[4-(2,3-Difluoro-phenyl)-isoxazol-5-yl]-6-methyl-1,6-dihydro-pyrrolo[2,3-c]pyridin-7-one]
0.2 to 1 µM | Fc1ccc(-c2cnc3[nH]cc(-c4oncc4-c4cccc(F)c4F)c3c2)cn1 [Compound 69, 3-[4-(2,3-Difluoro-phenyl)-isoxazol-5-yl]-5-(6-fluoro-pyridin-3-yl)-1H-pyrrolo[2,3-b]pyridine]
0.2 to 1 µM | Fc1cccc(-n2cnnc2-c2c[nH]c3ncc(-c4ccc(N5CCC[C@H]5CN5CCCC5)nc4)cc23)c1F [Compound 115, 3-[4-(2,3-Difluoro-phenyl)-4H-[1,2,4]triazol-3-yl]-5-[6-(2-pyrrolidin-1-ylmethyl-pyrrolidin-1-yl)-pyridin-3-yl]-1H-pyrrolo[2,3-b]pyridine]
< 0.2 µM | CN(C)C(=O)c1ccc(-c2cnc3[nH]cc(-c4oncc4-c4cccc(F)c4F)c3c2)nc1 [Compound 79, 6-{3-[4-(2,3-Difluoro-phenyl)-isoxazol-5-yl]-1H-pyrrolo [2,3-b]pyridin-5-yl}-N,N-dimethyl-nicotinamide]
0.2 to 1 µM | N#CCC(=O)N1CCC(c2cnc3[nH]cc(-c4oncc4-c4cccc(F)c4F)c3c2)CC1 [Compound 64, 3-(4-{3-[4-(2,3-Difluoro-phenyl)-isoxazol-5-yl]-1H-pyrrolo[2,3-b]pyridin-5-yl}-piperidin-1-yl)-3-oxo-propionitrile]
0.2 to 1 µM | CN1CCN(c2ccc(-c3cnc4[nH]cc(-c5nncn5-c5cccc(F)c5F)c4c3)cc2)CC1 [Compound 110, 3-[4-(2,3-Difluoro-phenyl)-4H-[1,2,4]triazol-3-yl]-5-[4-(4-methyl-piperazin-1-yl)-phenyl]-1H-pyrrolo[2,3-b]pyridine]
< 0.2 µM | Fc1cccc(-c2cnoc2-c2c[nH]c3ncc(-c4ccc(CN5CCOCC5)cc4)cc23)c1F [Compound 92, 3-[4-(2,3-Difluoro-phenyl)-isoxazol-5-yl]-5-(4-morpholin-4-ylmethyl-phenyl)-1H-pyrrolo[2,3-b]pyridine]
0.2 to 1 µM | c1cnc2[nH]cc(-c3oncc3C3CCCCC3)c2c1 [Compound 47, 3-(4-Cyclohexyl-isoxazol-5-yl)-1H-pyrrolo[2,3-b]pyridine]
< 0.2 µM | NC1CC=C(c2cnc3[nH]cc(-c4oncc4-c4cccc(F)c4F)c3c2)CC1 (stereo not shown) [Compound 137, 4-{3-[4-(2,3-Difluoro-phenyl)-isoxazol-5-yl]-1H-pyrrolo [2,3-b]pyridin-5-yl}-cyclohex-3-enylamine]
0.2 to 1 µM | CN(C)CC#Cc1cnc2[nH]cc(-c3oncc3-c3cccc(F)c3F)c2c1 [Compound 53, (3-{3-[4-(2,3-Difluoro-phenyl)-isoxazol-5-yl]-1H-pyrrolo[2,3-b]pyridin-5-yl}-prop-2-ynyl)-dimethyl-amine]
< 0.2 µM | CC(=O)Nc1ccc(-c2cnc3[nH]cc(-c4oncc4-c4cccc(F)c4F)c3c2)cc1 [Compound 95, N-(4-{3-[4-(2,3-Difluoro-phenyl)-isoxazol-5-yl]-1H-pyrrolo[2,3-b]pyridin-5-yl}-phenyl)-acetamide]
0.2 to 1 µM | Fc1cccc(-c2cnoc2-c2c[nH]c3ncc(-c4ncccn4)cc23)c1F [Compound 75, 3-[4-(2,3-Difluoro-phenyl)-isoxazol-5-yl]-5-pyrimidin-2-yl-1H-pyrrolo[2,3-b]pyridine]
